Assay results reported in patent US6624157B2, “Thiadioxobenzodiazepine inhibitors of farnesyl protein transferase” (Bristol-Myers Squibb Company, priority 1996, dated 2003).
Counter-ions that a name gives are not always drawn.

Row | melting point [°C] | Structure (SMILES)
1 | 180 | O=S1(=O)NC(Cc2ccccc2)CN(Cc2cnc[nH]2)c2ccc(Br)cc21 (stereo not shown) (as salt: hydrochloride) [Example 9, N-[2,3,4,5-Tetrahydro-8-bromo-5-(1H-imidazol-4-ylmethyl)-3-(phenylmethyl)-1,2,5-benzothiadiazepine, 1,1-dioxide, monohydrochloride]
2 | 140 | CN1C(Cc2ccccc2)CN(Cc2cnc[nH]2)c2ccc(Br)cc2S1(=O)=O (stereo not shown) (as salt: hydrochloride) [Example 10, 2,3,4,5-Tetrahydro-8-bromo-2-methyl-5-(1H-imidazol-4-ylmethyl)-3-(phenylmethyl)-1,2,5-benzothiadiazepine, 1,1-dioxide, monohydrochloride]
3 | 95 | O=S1(=O)c2ccccc2N(Cc2cnc[nH]2)CCN1CCc1ccccc1 (as salt: hydrochloride) [Example 2, 2,3,4,5-Tetrahydro-5-(1H-imidazol-4-ylmethyl)-2-(2-phenylethyl)-1,2,5-benzothiadiazepine, 1,1-dioxide, monohydrochloride]
4 | 128 | O=S1(=O)c2ccccc2N(Cc2cnc[nH]2)CCN1Cc1cccc2ccccc12 (as salt: hydrochloride) [Example 1, 2,3,4,5-Tetrahydro-5-(1H-imidazol-4-ylmethyl)-2-(1-naphthalenylmethyl)-1,2,5-benzothiadiazepine, 1,1-dioxide, monohydrochloride]
